Source: article PMC7464173, “Phosphate Derivatives of 3-Carboxyacylbetulin: SynThesis, In Vitro Anti-HIV and Molecular Docking Study” (Biomolecules, 2020)
Read-outs that look alike come from different tables or passages of the source.

What was measured:
[1] = test system: HIV-1; experiment: Anti-HIV-1 replication activity, p24 antigen ELISA in HIV-infected CEM-T4 cell line; type: cell-based; settings: for IC50: Human immunodeficiency virus 1, CEM-T4, 168 h; for ability to inhibit HIV replication: tested range of concentrations 0.02 to 10 μM; for TI: therapeutic index (selectivity index), the ratio of CC50 to IC50
[2] = Cytotoxicity, MTT assay in CEM-T4 cells; type: cell-based; settings: human
Description: For the determination of compounds’ cytotoxicity, CEM-T4 cells were obtained from the NIH AIDS Reagent Program (NIH, US) and were cultured in RPMI supplemented with 10% FCS (Biochrom) and antibiotics at 37 °C in 5% CO2 on 96-well culture plates. The experiments were carried out in media containing tested compounds in concentrations of the appropriate range. Cultures in a neat medium (RPMI, 10% FCS) were used as a control. Viability of cells was determined after 7 days using the MTT assay in which 10 μL of MTT solution (5 mg/mL) was added to each culture plate well, and cultures were incubated for 3 h at a temperature of 37 °C. After the centrifugation, the supernatant was removed, and DMSO was added for lysis of the cells and to dissolve crystals of formazan. Color intensity was measured with a plate reader at 560 nm.
Newly synthesized compounds 2–5 were evaluated for their activity against HIV-1 in a CEM-T4 cell line. First, a cytotoxicity assessment of the synthesized derivatives was performed using the MTT [3-(4,5-dimethylthiazol-2-yl)-2,5-diphenyltetrazolium bromide]. The results were expressed as CC50 (concentration of compound causing 50% cell death). Anti-HIV activity was expressed as IC50 (concentration of compound causing 50% inhibition of replication) and consisted of measurements of p24 antigen made using the Genscreen ULTRA HIV Ag-Ab Kit.

[3] = test system: HIV-1; set-up: method as in PMID 31640137; settings: in vitro anti-HIV-1 activity; cited from earlier work
[4] = cytotoxicity; cited from earlier work
[5] = concentration causing 50% cell death, CEM-T4 cells, MTT, 7 days, read-out: CC50
[6] = cytotoxicity values, CEM-T4 cells, read-out: IC50 (cytotoxicity)

C=C(C)[C@@H]1CC[C@]2(C(=O)O)CC[C@]3(C)[C@H](CC[C@@H]4[C@@]5(C)CC[C@H](OC(=O)CC(C)(C)C(=O)O)C(C)(C)[C@@H]5CC[C@]43C)[C@@H]12 [BVM, 3-O-(3’,3’-dimethylsuccinyl)betulinic acid, reference compound]
IC50 [1]: 0.03 ± 0.009 µM
CC50 at 7 days [2]: 29 ± 2.43 µM
IC50 at 7 days [2]: 29 µM

C=C(C)[C@@H]1CC[C@]2(CO)CC[C@]3(C)[C@H](CC[C@@H]4[C@@]5(C)CC[C@H](O)C(C)(C)[C@@H]5CC[C@]43C)[C@@H]12 [Compound 1, Betulin]
IC50 [1]: > 10 µM
ability to inhibit HIV replication [1]: did not demonstrate the ability to inhibit HIV replication
CC50 at 7 days [2, 5]: 46 ± 3.01 µM

C=C(C)[C@@H]1CC[C@]2(COP(=O)(OCC)OCC)CC[C@]3(C)C(CCC4[C@@]5(C)CC[C@H](O)C(C)(C)C5CC[C@]43C)C12 (some centres unmarked) [Compound 2, 28-Diethoxyphosphorylbetulin]
IC50 [1]: > 10 µM
ability to inhibit HIV replication [1]: did not demonstrate the ability to inhibit HIV replication
CC50 at 7 days [2, 5]: 18.3 ± 1.64 µM

C=C(C)[C@@H]1CC[C@]2(COP(=O)(OCC)OCC)CC[C@]3(C)C(CCC4[C@@]5(C)CC[C@H](OC(=O)CC(C)(C)C(=O)O)C(C)(C)C5CC[C@]43C)C12 (some centres unmarked) [Compound 3, 28-Diethoxyphosphoryl-3-O-(3′,3′-dimethylsuccinyl)betulin]
IC50 [1]: 0.02 ± 0.01 µM
TI [1]: 1250
CC50 at 7 days [2, 5]: 25.4 ± 1.54 µM
IC50 at 7 days [2, 6]: 25.4 µM

C=C(C)[C@@H]1CC[C@]2(COP(=O)(OCC)OCC)CC[C@]3(C)C(CCC4[C@@]5(C)CC[C@H](OC(=O)CC(C)(C)CC(=O)O)C(C)(C)C5CC[C@]43C)C12 (some centres unmarked) [Compound 4, 28-Diethoxyphosphoryl-3-O-(3′,3′-dimethylglutaryl)betulin]
IC50 [1]: 0.04 ± 0.01 µM
TI [1]: 500
CC50 at 7 days [2, 5]: 19.7 ± 1.64 µM
IC50 at 7 days [2, 6]: 19.7 µM

C=C(C)[C@@H]1CC[C@]2(COP(=O)(OCC)OCC)CC[C@]3(C)C(CCC4[C@@]5(C)CC[C@H](OC(=O)CCC(C)(C)C(=O)O)C(C)(C)C5CC[C@]43C)C12 (some centres unmarked) [Compound 5, 28-Diethoxyphosphoryl-3-O-(4′,4′-dimethylglutaryl)betulin]
IC50 [1]: 0.22 ± 0.05 µM
TI [1]: 68
CC50 at 7 days [2, 5]: 15.1 ± 1.27 µM
IC50 at 7 days [2, 6]: 15.1 µM

C=C(CP(=O)(OCC)OCC)[C@@H]1CC[C@]2(C(=O)O)CC[C@]3(C)C(CC[C@@H]4[C@@]5(C)CC[C@H](OC(=O)CC(C)(C)C(=O)O)C(C)(C)C5CC[C@]43C)[C@@H]12 (some centres unmarked) [Compound 6, 30-diethoxyphosphoryl-3-O-(3′,3′-dimethylsuccinyl)betulinic acid]
IC50 [3]: 0.02 µM
CC50 [4]: 68 µM
